Results: patent US20240317708A1, “INHIBITORS OF TRANSGLUTAMINASES” (ZEDIRA GMBH, priority 2021, published 2024)

How the values were obtained:
[1] = Caco-2 permeability assay (CacoReady kit); format: in vitro ADME; conditions: human
Summary of the method: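 Papp values come from Caco-2 barrier studies intended to predict oral bioavailability; the manufacturer's procedure for the ready-made kit was followed.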

[2] = molecular target: T1, recombinant human transglutaminase 2 (Homo sapiens, UniProt P21980); assay: Transglutaminase assay (dansylcadaverine incorporation into dimethylcasein, DCC-assay); format: biochemical; conditions: recombinant human TG2 10 nM, dansylcadaverine/dimethylcasein, 37° C.
T1 construct: purchased Zedira T022
T1 sequence (P21980 1-687): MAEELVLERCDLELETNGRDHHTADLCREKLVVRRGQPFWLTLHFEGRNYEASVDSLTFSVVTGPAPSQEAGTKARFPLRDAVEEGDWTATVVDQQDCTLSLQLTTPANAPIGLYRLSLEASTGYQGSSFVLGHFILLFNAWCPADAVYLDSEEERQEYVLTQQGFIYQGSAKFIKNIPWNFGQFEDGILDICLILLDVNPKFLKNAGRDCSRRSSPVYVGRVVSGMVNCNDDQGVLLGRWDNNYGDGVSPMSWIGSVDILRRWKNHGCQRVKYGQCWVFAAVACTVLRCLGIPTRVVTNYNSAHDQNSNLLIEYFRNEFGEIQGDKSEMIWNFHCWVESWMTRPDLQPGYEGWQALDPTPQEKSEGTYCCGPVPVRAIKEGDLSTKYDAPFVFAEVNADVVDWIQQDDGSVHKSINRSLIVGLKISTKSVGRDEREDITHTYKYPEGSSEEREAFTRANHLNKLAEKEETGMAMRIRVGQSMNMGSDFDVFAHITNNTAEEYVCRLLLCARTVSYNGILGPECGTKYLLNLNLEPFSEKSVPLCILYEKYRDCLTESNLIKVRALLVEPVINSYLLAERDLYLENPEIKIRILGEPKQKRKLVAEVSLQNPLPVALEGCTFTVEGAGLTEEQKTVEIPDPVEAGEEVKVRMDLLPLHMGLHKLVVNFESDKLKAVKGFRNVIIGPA
Summary of the method: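 IC50 derived from fluorescence slope between 20 and 30 min (λex 330 nm, λem 500 nm, 37 °C), expressed relative to a 2% DMSO control. Reaction: 10 nM recombinant human TG2, 4 μM dimethylcasein, 16.7 μM dansylcadaverine, 10 mM CaCl2 and glutathione, pH 8.0.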

[3] = Log D shake flask method (octanol / PBS pH 7.4, HPLC); format: physicochemical; conditions: octanol/phosphate-buffered saline (PBS); octanol / PBS pH 7.4, shake flask
Procedure: In order to classify the inventive compounds according to their lipophilicity, Log D values (distribution coefficient) were determined by means of the well-established shake flask method, measuring the partition of a compound between an octanol and phosphate-buffered saline (PBS, pH 7.4) by HPLC.

| Papp [1] [×10⁻⁶ cm/s] | IC50 [2] [nM] | logD [3] | SMILES |
| --- | --- | --- | --- |
| 1 to 10 | < 25 | 3 to 5 | COC(=O)/C=C/CC[C@H](NC(=O)c1oc2ccccc2c1C)C(=O)Nc1cccn(CC(=O)NC23CC4CC(CC(Br)(C4)C2)C3)c1=O [III-53, (S,E)-methyl 7-(1-(2-(3-bromoadamantan-1-amino)-2-oxoethyl)-2-oxo-1,2-dihydropyridin-3-ylamino)-6-(3-methylbenzofuran-2-carboxamido)-7-oxohept-2-enoate] |
| 1 to 10 | < 25 | 3 to 5 | COC(=O)/C=C/CC[C@H](NC(=O)c1cc(Br)sc1Br)C(=O)Nc1cccn(CC(=O)NC2C3CC4CC(C3)CC2C4)c1=O (stereo partly drawn) [III-16, (S,E)-methyl 6-(2,5-dibromothiophene-3-carboxamido)-7-(1-(2-(2-adamantylamino)-2-oxoethyl)-2-oxo-1,2-dihydropyridin-3-ylamino)-7-oxohept-2-enoate] |
| < 1 | < 25 | 1 to 3 | COC(=O)/C=C/CC[C@H](NC(=O)c1snnc1C)C(=O)Nc1cccn(CC(=O)NC2C3CC4CC(C3)CC2C4)c1=O (stereo partly drawn) [III-118, (S,E)-methyl 7-(1-(2-(2-adamantylamino)-2-oxoethyl)-2-oxo-1,2-dihydropyridin-3-ylamino)-6-(4-methyl-1,2,3-thiadiazole-5-carboxamido)-7-oxohept-2-enoate] |
| 1 to 10 | < 25 | 3 to 5 | COC(=O)/C=C/CC[C@H](NC(=O)c1oc2ccccc2c1C)C(=O)Nc1cccn(CC(=O)NC2C3CC4CC2CC(Br)(C4)C3)c1=O (stereo partly drawn) [III-41, (S,E)-methyl 7-(1-(2-(5-bromoadamantan-2-amino)-2-oxoethyl)-2-oxo-1,2-dihydropyridin-3-ylamino)-6-(3-methylbenzofuran-2-carboxamido)-7-oxohept-2-enoate] |
| < 1 | 25 to 250 | 1 to 3 | CN(C)C(=O)/C=C/CC[C@H](NC(=O)c1cncn1C)C(=O)Nc1cccn(CC(=O)NC2C3CC4CC(C3)CC2C4)c1=O (stereo partly drawn) [III-76, (S,E)-N^7-(1-(2-(2-adamantylamino)-2-oxoethyl)-2-oxo-1,2-dihydropyridin-3-yl)-N^1,N^1-dimethyl-6-(1-methyl-1H-imidazole-5-carboxamido)hept-2-enediamide] |
| 1 to 10 | 250 to 1500 | 3 to 5 | COC(=O)/C=C/CC[C@H](NC(=O)c1oc2ccccc2c1C)C(=O)Nc1cccn(CC23CC4CC(CC(C4)C2)C3)c1=O [III-79, (S,E)-methyl 7-(1-(1-adamantylmethyl)-2-oxo-1,2-dihydropyridin-3-ylamino)-6-(3-methylbenzofuran-2-carboxamido)-7-oxohept-2-enoate] |
| < 1 | 25 to 250 | 1 to 3 | COC(=O)/C=C/CC[C@H](NC(=O)c1ccc2occc2c1)C(=O)Nc1cccn(CC(=O)NC2C3CC4CC2CC(NC(C)=O)(C4)C3)c1=O (stereo partly drawn) [III-165, (S,E)-methyl 6-(benzofuran-5-carboxamido)-7-(1-(2-(1-acetylamino-4-aminoadamantane)-2-oxoethyl)-2-oxo-1,2-dihydropyridin-3-ylamino)-7-oxohept-2-enoate] |
| 1 to 10 | < 25 | 3 to 5 | COC(=O)/C=C/CC[C@H](NC(=O)c1cncn1C)C(=O)Nc1cccn(CC(=O)NC23CC4(C)CC(C)(CC(C)(C4)C2)C3)c1=O [III-91, (S,E)-methyl 7-(1-(2-(3,5,7-trimethyl-1-adamantylamino)-2-oxoethyl)-2-oxo-1,2-dihydropyridin-3-ylamino)-6-(1-methyl-1H-imidazole-5-carboxamido)-7-oxohept-2-enoate] |
| < 1 | 250 to 1500 | < 1 | COC(=O)/C=C/CC[C@H](NC(=O)c1noc(C)n1)C(=O)Nc1cccn(CC(=O)NC23CC(C2)C3)c1=O [III-168, (S,E)-methyl 7-(1-(2-(bicyclo[1.1.1]pentan-1-ylamino)-2-oxoethyl)-2-oxo-1,2-dihydropyridin-3-ylamino)-6-(5-methyl-1,2,4-oxadiazole-3-carboxamido)-7-oxohept-2-enoate] |
| 1 to 10 | < 25 | 3 to 5 | COC(=O)/C=C/CC[C@H](NC(=O)c1cc(Cl)sc1Cl)C(=O)Nc1cccn(CC(=O)N[C@@H]2C[C@@H]3CC[C@H]2C3)c1=O [III-126, (S,E)-methyl 7-(1-(2-((1S,2R,4R)-bicyclo[2.2.1]heptan-2-ylamino)-2-oxoethyl)-2-oxo-1,2-dihydropyridin-3-ylamino)-6-(2,5-dichlorothiophene-3-carboxamido)-7-oxohept-2-enoate] |
| 1 to 10 | 25 to 250 | < 1 | CC(C)NC(=O)/C=C/CC[C@H](NC(=O)c1c[nH]c2ccccc12)C(=O)Nc1cccn(CC(=O)NC23CC(C2)C3)c1=O [III-140, (S,E)-N7-(1-(2-(bicyclo[1.1.1]pentan-1-ylamino)-2-oxoethyl)-2-oxo-1,2-dihydropyridin-3-yl)-6-(1H-indole-3-carboxamido)-N1-isopropylhept-2-enediamide] |
| < 1 | 25 to 250 | 3 to 5 | COC(=O)/C=C/CC[C@H](NC(=O)c1nc2ccccc2[nH]1)C(=O)Nc1cccn(CC(=O)NC2C3CC4CC(C3)CC2C4)c1=O (stereo partly drawn) [III-11, (S,E)-methyl 6-(1H-benzo[d]imidazole-2-carboxamido)-7-(1-(2-(2-adamantylamino)-2-oxoethyl)-2-oxo-1,2-dihydropyridin-3-ylamino)-7-oxohept-2-enoate] |
| 1 to 10 | 25 to 250 | 3 to 5 | COC(=O)/C=C/CC[C@H](NC(=O)c1coc2ccccc12)C(=O)Nc1cccn(CC(=O)NC2C3CC4CC(C3)CC2C4)c1=O (stereo partly drawn) [III-106, (S,E)-methyl 6-(benzofuran-3-carboxamido)-7-(1-(2-(2-adamantylamino)-2-oxoethyl)-2-oxo-1,2-dihydropyridin-3-ylamino)-7-oxohept-2-enoate] |
| < 1 | 25 to 250 | 3 to 5 | COC(=O)/C=C/CC[C@H](NC(=O)[C@@H]1CCCN1C)C(=O)Nc1cccn(CC(=O)NC2C3CC4CC(C3)CC2C4)c1=O (stereo partly drawn) [III-25, (S,E)-methyl 7-(1-(2-(2-adamantylamino)-2-oxoethyl)-2-oxo-1,2-dihydropyridin-3-ylamino)-6-((S)-1-methylpyrrolidine-2-carboxamido)-7-oxohept-2-enoate] |
| < 1 | 25 to 250 | < 1 | COC(=O)/C=C/CC[C@H](NC(=O)c1csnn1)C(=O)Nc1cccn(CC(=O)NC23CC(C2)C3)c1=O [III-169, (S,E)-methyl 7-(1-(2-(bicyclo[1.1.1]pentan-1-ylamino)-2-oxoethyl)-2-oxo-1,2-dihydropyridin-3-ylamino)-7-oxo-6-(1,2,3-thiadiazole-4-carboxamido)hept-2-enoate] |
